As usually defined, the IC50 is the concentration that gives 50% inhibition.

The target in this assay is T1, human kinase Mps-1 (Homo sapiens, UniProt P33981).
T1 construct: N-terminally GST-tagged human full length recombinant Mps-1 kinase; GST (N); purchased Invitrogen, Karslruhe, Germany PV4071
T1 sequence (P33981 1-857): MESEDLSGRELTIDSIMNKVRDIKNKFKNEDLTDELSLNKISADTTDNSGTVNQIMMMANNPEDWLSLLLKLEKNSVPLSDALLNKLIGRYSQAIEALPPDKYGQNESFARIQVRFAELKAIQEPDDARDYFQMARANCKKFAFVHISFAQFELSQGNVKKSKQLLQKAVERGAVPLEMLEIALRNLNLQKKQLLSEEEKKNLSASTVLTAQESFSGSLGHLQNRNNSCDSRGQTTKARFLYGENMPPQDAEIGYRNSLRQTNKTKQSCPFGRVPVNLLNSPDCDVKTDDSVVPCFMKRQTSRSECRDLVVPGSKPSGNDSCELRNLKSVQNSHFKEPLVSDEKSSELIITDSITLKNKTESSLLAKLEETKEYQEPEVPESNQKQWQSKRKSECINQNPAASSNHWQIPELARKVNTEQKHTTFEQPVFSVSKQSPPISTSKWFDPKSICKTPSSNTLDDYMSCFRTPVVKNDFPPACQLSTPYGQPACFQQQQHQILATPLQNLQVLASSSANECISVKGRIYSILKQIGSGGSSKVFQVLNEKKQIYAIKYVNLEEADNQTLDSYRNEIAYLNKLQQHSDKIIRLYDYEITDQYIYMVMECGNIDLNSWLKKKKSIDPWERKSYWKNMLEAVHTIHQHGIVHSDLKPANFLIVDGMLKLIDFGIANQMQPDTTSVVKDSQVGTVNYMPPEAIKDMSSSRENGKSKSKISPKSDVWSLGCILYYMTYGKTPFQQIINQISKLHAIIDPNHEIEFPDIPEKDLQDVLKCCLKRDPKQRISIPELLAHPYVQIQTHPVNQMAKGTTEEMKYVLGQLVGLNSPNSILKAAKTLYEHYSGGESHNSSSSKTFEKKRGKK
As to the kind of experiment: Mps-1 kinase assay (TR-FRET). The format is biochemical. As to conditions: GST-tagged human full length recombinant Mps-1; 10 μM ATP; 1 μM peptide substrate; 60 min at 22° C. On the procedure:
The human kinase Mps-1 phosphorylates a biotinylated substrate peptide. Detection of the phosphorylated product is achieved by time-resolved fluorescence resonance energy transfer (TR-FRET) from Europium-labelled anti-phospho-Serine/Threonine antibody as donor to streptavidin labelled with cross-linked allophycocyanin (SA-XLent) as acceptor. Compounds are tested for their inhibition of the kinase activity.
N-terminally GST-tagged human full length recombinant Mps-1 kinase (purchased from Invitrogen, Karslruhe, Germany, cat. no PV4071) was used. As substrate for the kinase reaction a biotinylated peptide of the amino-acid sequence […] (C-terminus in amide form, purchased from Biosynthan GmbH, Berlin) was used.
The concentration of Mps-1 in the assay was adjusted to the activity of the enzyme lot and was chosen appropriate to have the assay in the linear range, typical enzyme concentrations were in the range of about 1 nM (final conc. in the 5 μl assay volume).
The resulting mixture was incubated 1 h at 22° C. to allow the binding of the phosphorylated peptide to the anti-phospho(Ser/Thr)-Europium-antibody. Subsequently the amount of phosphorylated substrate was evaluated by measurement of the resonance energy transfer from the Europium-labelled anti-phospho(Ser/Thr) antibody to the Streptavidin-XLent. Therefore, the fluorescence emissions at 620 nm and 665 nm after excitation at 350 nm was measured in a Viewlux TR-FRET reader (PerkinElmer LAS, Rodgau-Jügesheim, Germany). The “blank-corrected normalized ratio” (a Viewlux specific readout, similar to the traditional ratio of the emissions at 665 nm and at 622 nm, in which blank and Eu-donor crosstalk are subtracted from the 665 nm signal before the ratio is calculated) was taken as the measure for the amount of phosphorylated substrate.
(TR-FRET usually uses a lanthanide donor and a delayed reading to cut background.)
With `CC(C)CNc1nc(-c2cncc(C(=O)NC(C)(C)C)c2)cn2c(-c3ccc(C(=O)NC4CC4)cc3)cnc12` [Example 1-24, N-tert-butyl-5-{3-[4-(cyclopropylcarbamoyl)phenyl]-8-[(2-methyl-propyl)amino]imidazo [1,2-a]pyrazin-6-yl} pyridine-3-carboxamide], the 50% inhibitory concentration (IC50) is 19.4 nM.

Regarding `CC(=O)Nc1ccc(-c2cn3c(-c4ccc(C(=O)NC5CC5)cc4)cnc3c(NCC(C)C)n2)cn1` [Example 1-25, 4-{6-[6-(acetylamino)pyridin-3-yl]-8-[(2-methyl-propyl)amino]imidazo [1,2-a]pyrazin-3-yl}-N-cyclopropylbenzamide], the half-maximal inhibitory concentration (IC50) amounted to 8.9 nM.

As for `CC(C)CNc1nc(C2=CCNCC2)cn2c(-c3ccc(C(=O)NC4CC4)cc3)cnc12` [Example 1-26, N-cyclopropyl-4-{8-[(2-methylpropyl)amino]-6-(1,2,3,6-tetrahydro-pyridin-4-yl)imidazo [1,2-a]pyrazin-3-yl} benzamide], the IC50 amounted to 2.9 nM.

`CC(C)CNc1nc(C2=CCN(C)CC2)cn2c(-c3ccc(C(=O)NC4CC4)cc3)cnc12` [Example 1-27, N-cyclopropyl-4-{8-[(2-methylpropyl)amino]-6-(1-methyl-1,2,3,6-tetra-hydropyridin-4-yl)imidazo[1,2-a]pyrazin-3-yl}benzamide]: the 50% inhibitory concentration (IC50) turned out to be 7.5 nM.

For the compound `CC(C)CNc1nc(C2=CCSCC2)cn2c(-c3ccc(C(=O)NC4CC4)cc3)cnc12` [Example 1-28, N-cyclopropyl-4-{6-(3,6-dihydro-2H-thiopyran-4-yl)-8-[(2-methylpropyl)amino]imidazo[1,2-a]pyrazin-3-yl}benzamide], the IC50 is 2 nM.

Regarding `CC(C)CNc1nc(C2=CCOCC2)cn2c(-c3ccc(C(=O)NC4CC4)cc3)cnc12` [Example 1-29, N-cyclopropyl-4-{6-(3,6-dihydro-2H-pyran-4-yl)-8-[(2-methylpropyl)amino]imidazo[1,2-a]pyrazin-3-yl}benzamide], the IC50 worked out at 1.4 nM.

For the compound `CC(C)CNc1nc(-c2ccn[nH]2)cn2c(-c3ccc(C(=O)NC4CC4)cc3)cnc12` [Example 1-30, N-cyclopropyl-4-{8-[(2-methylpropyl)amino]-6-(1H-pyrazol-5-yl)imidazo[1,2-a]pyrazin-3-yl}benzamide], the IC50 was 1.7 nM.

`CC(C)CNc1nc(-c2ccc(CN(C)C)cc2)cn2c(-c3ccc(C(=O)NC4CC4)cc3)cnc12` [Example 1-31, N-cyclopropyl-4-(6-{4-[(dimethylamino)methyl]phenyl}-8-[(2-methyl-propyl)amino]imidazo [1,2-a]pyrazin-3-yl) benzamide]: the IC50 was 3.3 nM.

With `CC(C)CNc1nc(-c2ccncc2)cn2c(-c3ccc(C(=O)NC4CC4)c(Cl)c3)cnc12` [Example 1-32, 2-chloro-N-cyclopropyl-4-{8-[(2-methylpropyl)amino]-6-(pyridin-4-yl)imidazo[1,2-a]pyrazin-3-yl}benzamide], the half-maximal inhibitory concentration (IC50) is 6.2 nM.

As to `CC(C)CNc1nc(-c2ccoc2)cn2c(-c3ccc(C(=O)NC4CC4)c(Cl)c3)cnc12` [Example 1-33, 2-chloro-N-cyclopropyl-4-{6-(furan-3-yl)-8-[(2-methylpropyl)amino]imidazo[1,2-a]pyrazin-3-yl}benzamide], the concentration for half-maximal inhibition (IC50) came out at 12.4 nM.

For the compound `CC(C)CNc1nc(-c2ccn[nH]2)cn2c(-c3ccc(C(=O)NC4CC4)c(Cl)c3)cnc12` [Example 1-34, 2-chloro-N-cyclopropyl-4-{8-[(2-methylpropyl)amino]-6-(1H-pyrazol-5-yl)imidazo[1,2-a]pyrazin-3-yl}benzamide], the IC50 was 35.7 nM.

Take `CC(C)CNc1nc(C2=CCOCC2)cn2c(-c3ccc(C(=O)NC4CC4)c(Cl)c3)cnc12` [Example 1-35, 2-chloro-N-cyclopropyl-4-{6-(3,6-dihydro-2H-pyran-4-yl)-8-[(2-methyl-propyl)amino]imidazo [1,2-a]pyrazin-3-yl} benzamide]: the half-maximal inhibitory concentration (IC50) amounted to 11.4 nM.

For the compound `O=C(NC1CC1)c1ccc(-c2cnc3c(NCCC(F)(F)F)nc(-c4ccncc4)cn23)cc1Cl` [Example 1-36, 2-chloro-N-cyclopropyl-4-{6-(pyridin-4-yl)-8-[(3,3,3-trifluoropropyl)amino]imidazo[1,2-a]pyrazin-3-yl}benzamide], the concentration for half-maximal inhibition (IC50) was found to be 5.9 nM.

Regarding `O=C(NC1CC1)c1ccc(-c2cnc3c(NCCC(F)(F)F)nc(-c4ccoc4)cn23)cc1Cl` [Example 1-37, 2-chloro-N-cyclopropyl-4-{6-(furan-3-yl)-8-[(3,3,3-trifluoropropyl)amino]imidazo[1,2-a]pyrazin-3-yl}benzamide], the half-maximal inhibitory concentration (IC50) was 8.1 nM.

As to `O=C(NC1CC1)c1ccc(-c2cnc3c(NCCC(F)(F)F)nc(-c4ccn[nH]4)cn23)cc1Cl` [Example 1-38, 2-chloro-N-cyclopropyl-4-{6-(1H-pyrazol-5-yl)-8-[(3,3,3-trifluoropropyl)amino]imidazo[1,2-a]pyrazin-3-yl}benzamide], the concentration for half-maximal inhibition (IC50) amounted to 14.1 nM.

For `O=C(NC1CC1)c1ccc(-c2cnc3c(NCCC(F)(F)F)nc(C4=CCOCC4)cn23)cc1Cl` [Example 1-39, 2-chloro-N-cyclopropyl-4-{6-(3,6-dihydro-2H-pyran-4-yl)-8-[(3,3,3-trifluoropropyl)amino]imidazo[1,2-a]pyrazin-3-yl}benzamide], the half-maximal inhibitory concentration (IC50) was 12.2 nM.

With `CC(C)(O)CNc1nc(-c2ccncc2)cn2c(-c3ccc(C(=O)NC4CC4)c(Cl)c3)cnc12` [Example 1-40, 2-chloro-N-cyclopropyl-4-{8-[(2-hydroxy-2-methylpropyl)amino]-6-(pyridin-4-yl)imidazo [1,2-a]pyrazin-3-yl} benzamide], the IC50 stood at 57.7 nM.

In the case of `CC(C)(O)CNc1nc(-c2ccoc2)cn2c(-c3ccc(C(=O)NC4CC4)c(Cl)c3)cnc12` [Example 1-41, 2-chloro-N-cyclopropyl-4-{6-(furan-3-yl)-8-[(2-hydroxy-2-methylpropyl)amino]imidazo[1,2-a]pyrazin-3-yl}benzamide], the 50% inhibitory concentration (IC50) was determined as 55.3 nM.

As for `O=C(NC1CC1)c1ccc(-c2cnc3c(NCC4CCCO4)nc(-c4ccncc4)cn23)cc1Cl` (stereo not shown) [Example 1-42, 2-chloro-N-cyclopropyl-4-{6-(pyridin-4-yl)-8-[(tetrahydrofuran-2-ylmethyl)amino]imidazo [1,2-a]pyrazin-3-yl} benzamide], the IC50 is 40.9 nM.

`O=C(NC1CC1)c1ccc(-c2cnc3c(NCC4CCCO4)nc(-c4ccoc4)cn23)cc1Cl` (stereo not shown) [Example 1-43, 2-chloro-N-cyclopropyl-4-{6-(furan-3-yl)-8-[(tetrahydrofuran-2-ylmethyl)amino]imidazo [1,2-a]pyrazin-3-yl} benzamide]: the IC50 stood at 42.8 nM.

Turning to `O=C(NC1CC1)c1ccc(-c2cnc3c(NCC4CCCO4)nc(-c4ccn[nH]4)cn23)cc1Cl` (stereo not shown) [Example 1-44, 2-chloro-N-cyclopropyl-4-{6-(1H-pyrazol-5-yl)-8-[(tetrahydrofuran-2-ylmethyl)amino]imidazo [1,2-a]pyrazin-3-yl} benzamide], the half-inhibitory concentration (IC50) amounted to 127 nM.

In the case of `O=C(NC1CC1)c1ccc(-c2cnc3c(NCC4CCCO4)nc(C4=CCOCC4)cn23)cc1Cl` (stereo not shown) [Example 1-45, 2-chloro-N-cyclopropyl-4-{6-(3,6-dihydro-2H-pyran-4-yl)-8-[(tetrahydro-furan-2-ylmethyl)amino]imidazo[1,2-a]pyrazin-3-yl}benzamide], the IC50 was 105 nM.

Source of the values: patent US20140135319A1, “6-SUBSTITUTED IMIDAZOPYRAZINES FOR USE AS MPS-1 AND TKK INHIBITORS IN THE TREATMENT OF HYPERPROLIFERATIVE DISORDERS” (BAYER INTELLECTUAL PROPERTY GMBH, priority 2010, published 2014).
